From US10350199B2, “3-(1h-pyrrolo[2,3-b]pyridin-2-yl)-1h-indazoles and therapeutic uses thereof” (Samumed, LLC, priority 2015, dated 2019)

Experiments:
Format in all cases: cell-based
[1] = test system: IL-6 (THP-1 human monocyte cell line); assay: IL-6 inhibition in LPS-stimulated THP-1 cells (HTRF); conditions: for EC50: IL-6 inhibition, LPS-stimulated THP-1 cells, HTRF; for inhibition at 10 µM: THP-1, read-out: percentage in parentheses beside EC50 >10 (IL-6 inhibition)
How it was run: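 THP-1 cells kept 24 h in 1% FBS medium, treated 2 h at 37 °C, then stimulated with 500 ng/mL LPS for another 22 h. IL-6 measured by HTRF as the 665/620 nm ratio; EC50 from a four-parameter fit normalized to DMSO controls.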

SW480 colon cancer cells = assay: Cell viability assay (CellTiter-Blue), SW480 cells, four days; conditions: Homo sapiens; for EC50: 96 h, SW480 cell viability, four days, CellTiter-Blue; for inhibition at 10 µM: SW480, read-out: percent inhibition at 10 μM
How it was run: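 Fluorescence from resazurin reduced to resorufin by metabolically active cells was the read-out, taken after ~3 h with CellTiter-Blue.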

[2] = test system: primary human fibroblasts derived from IPF patients (LL29 cells) treated with TGF-β1; assay: Inhibition of the fibrotic process: αSMA staining in TGF-β1 treated LL29 fibroblasts; conditions: Fibroblast; for EC50: 96 h, LL29 cells, TGF-β1 20 ng/mL, 4 days, % αSMA positive cells; for inhibition at 10 µM: read-out: percent inhibition at 10 μM
How it was run: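 IPF-patient-derived LL29 lung fibroblasts in F12 with 1% FBS, stimulated with TGF-β1 alongside compound; TGF-β1 plus DMSO wells served as controls. After 4 days, nuclei stained with 1 μM SYTOX green for 30 min at room temperature, alongside αSMA staining.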

[3] = test system: Wnt activity (Sp5-Luc reporter, SW480 colon carcinoma cells); assay: Wnt activity screening assay, Sp5-Luc reporter gene in SW480 cells; conditions: Homo sapiens; for inhibition at 10 µM: SW480, read-out: percent inhibition at 10 μM; for EC50: Sp5-Luc reporter, SW480 cells, overnight incubation
How it was run: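 SW480 cells stably transduced with lentiviral Sp5 promoter (eight TCF/LEF sites)-firefly luciferase, plated at 4,000 cells/well in 1% FBS medium and incubated overnight at 37° C. Luminescence read after BrightGlo addition, normalized to DMSO-only cells; EC50 from four-parameter variable-slope nonlinear regression.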

[4] = test system: primary human mesenchymal stem cells (hMSCs); assay: Induction of chondrogenesis in human mesenchymal stem cells (nodule area, Rhodamine B/Nile Red); conditions: hMSC chondrogenesis; for Emax: relative to TGF-β3 (10 ng/mL) positive control, read-out: Max. Activity as % TGF-β3 activity; for EC50: concentration required to induce 50% levels of chondrogenesis of TGF-β3 positive control, read-out: Conc (nM) of 50% TGF-β3 activity
Description: Representative compounds were screened using primary human mesenchymal stem cells (hMSCs) to determine their ability to induce chondrogenesis (process by which cartilage is developed).
Primary human mesenchymal stem cells (hMSCs) were purchased from Lonza (Walkersville, Md.) and expanded in Mesenchymal Stem Cell Growth Media (Lonza). Cells between passage 3 and 6 were used for the experiments.
Area of nodules in each well was normalized to the average of 3 DMSO treated wells on the same plate using Excel (Microsoft Inc.). The normalized averages (fold change over DMSO) of 2 or 3 replicate wells for each compound concentration were calculated. Due to solubility limitations of some of the compounds, curve fitting was incomplete leading to inaccurate EC50 determinations.
Using TGF-β3 as a positive control, the concentration of representative compounds required to induce 50% levels of chondrogenesis is reported. In addition, the maximum activity of each compound and the respective dose that each compound reached maximum chondrogenesis activity is reported.

| Compound | EC50 [1] | EC50 (SW480 colon cancer cells) | EC50 [3] | EC50 [4] | inhibition at 10 µM [1] | inhibition at 10 µM (SW480 colon cancer cells) | EC50 [2] | inhibition at 10 µM [2] | inhibition at 10 µM [3] | Emax [4] |
| --- | --- | --- | --- | --- | --- | --- | --- | --- | --- | --- |
| CN1CCN(c2ccnc3[nH]c(-c4n[nH]c5ccc(-c6cncc(N)c6)cc45)cc23)CC1 [Compound 227, 5-(3-(4-(4-Methylpiperazin-1-yl)-1H-pyrrolo[2,3-b]pyridin-2-yl)-1H-indazol-5-yl)pyridin-3-amine] | 7.34 µM | > 10 µM | 1.17 µM | 100 nM |  | 42.3% | > 10 µM | 51.2% |  | 50% |
| CN(C)Cc1cncc(-c2cc(F)c3[nH]nc(-c4cc5c(-c6cccc(F)c6)ccnc5[nH]4)c3c2)c1 [Compound 992, 1-(5-(7-Fluoro-3-(4-(3-fluorophenyl)-1H-pyrrolo[2,3-b]pyridin-2-yl)-1H-indazol-5-yl)pyridin-3-yl)-N,N-dimethylmethanamine] | > 10 µM | > 10 µM | > 10 µM |  | 34.2% | 3.6% | > 10 µM | 5.2% | 17% | 35% |
| c1cc(N2CCCCC2)c2cc(-c3n[nH]c4ccc(-c5cncc(CN6CCCC6)c5)cc34)[nH]c2n1 [Compound 182, 3-(4-(Piperidin-1-yl)-1H-pyrrolo[2,3-b]pyridin-2-yl)-5-(5-(pyrrolidin-1-ylmethyl)pyridin-3-yl)-1H-indazole] | 0.315 µM | 4.08 µM | > 10 µM |  |  |  | 7.76 µM |  | 36% | 21% |
| c1cnc2[nH]c(-c3n[nH]c4ccc(-c5cncnc5)cc34)cc2c1 [Compound 279, 5-(Pyrimidin-5-yl)-3-(1H-pyrrolo[2,3-b]pyridin-2-yl)-1H-indazole] | 0.14 µM | > 10 µM | > 10 µM | 10 nM |  | 17.9% | 9.84 µM |  | 16.6% | 84% |
| CCCCC(=O)Nc1cncc(-c2ccc3[nH]nc(-c4cc5cccnc5[nH]4)c3c2)c1 [Compound 271, N-(5-(3-(1H-Pyrrolo[2,3-b]pyridin-2-yl)-1H-indazol-5-yl)pyridin-3-yl) pentanamide] | 0.023 µM | 1.06 µM | 0.324 µM |  |  |  | 0.712 µM |  |  | 34% |
| CN(C)Cc1cncc(-c2ccc3[nH]nc(-c4cc5c(-c6cccc(F)c6)ccnc5[nH]4)c3c2F)c1 [Compound 994, 1-(5-(4-Fluoro-3-(4-(3-fluorophenyl)-1H-pyrrolo[2,3-b]pyridin-2-yl)-1H-indazol-5-yl)pyridin-3-yl)-N,N-dimethylmethanamine] | > 10 µM | > 10 µM | > 10 µM |  | 36.6% | 34.7% | 4.9 µM |  | 20.8% | 21% |
| CN1CCN(c2ccnc3[nH]c(-c4n[nH]c5ccc(-c6cncc(OCc7ccccc7)c6)cc45)cc23)CC1 [Compound 646, 5-(5-(Benzyloxy)pyridin-3-yl)-3-(4-(4-methylpiperazin-1-yl)-1H-pyrrolo[2,3-b]pyridin-2-yl)-1H-indazole] | > 10 µM | 4.82 µM | 4.88 µM |  | 37.9% |  | 0.316 µM |  |  |  |

Further lines, with some results ahead:

| EC50 [1] | EC50 (SW480 colon cancer cells) | EC50 [3] | EC50 [4] | Compound | inhibition at 10 µM [1] | inhibition at 10 µM (SW480 colon cancer cells) | EC50 [2] | inhibition at 10 µM [2] | inhibition at 10 µM [3] | Emax [4] |
| --- | --- | --- | --- | --- | --- | --- | --- | --- | --- | --- |
| > 10 µM | > 10 µM | > 10 µM |  | CCCCC(=O)Nc1cncc(-c2ccc3[nH]nc(-c4cc5c(-c6ccncc6)ccnc5[nH]4)c3c2)c1 [Compound 131, N-(5-(3-(4-(Pyridin-4-yl)-1H-pyrrolo[2,3-b]pyridin-2-yl)-1H-indazol-5-yl)pyridin-3-yl)pentanamide] | 31.5% | 10.6% | > 10 µM | 6.3% | 16.7% | 18% |
| > 10 µM | > 10 µM | > 10 µM |  | CC(C)(C)C(=O)Nc1cncc(-c2ccc3[nH]nc(-c4cc5c(-c6ccncc6)ccnc5[nH]4)c3c2)c1 [Compound 120, N-(5-(3-(4-(Pyridin-4-yl)-1H-pyrrolo[2,3-b]pyridin-2-yl)-1H-indazol-5-yl)pyridin-3-yl)pivalamide] | 35.6% | 10.7% | > 10 µM | 12.8% | 36.6% | 44% |
| 0.347 µM | 0.352 µM | > 10 µM |  | c1cncc(-c2ccc3[nH]nc(-c4cc5c(-c6ccsc6)ccnc5[nH]4)c3c2)c1 [Compound 284, 5-(Pyridin-3-yl)-3-(4-(thiophen-3-yl)-1H-pyrrolo[2,3-b]pyridin-2-yl)-1H-indazole] |  |  | 2.2 µM |  | 38% | 39% |
| > 10 µM | > 10 µM | > 10 µM | 900 nM | O=C(Nc1cncc(-c2ccc3[nH]nc(-c4cc5c(-c6ccncc6)ccnc5[nH]4)c3c2)c1)C1CCC1 [Compound 133, N-(5-(3-(4-(Pyridin-4-yl)-1H-pyrrolo[2,3-b]pyridin-2-yl)-1H-indazol-5-yl)pyridin-3-yl)cyclobutanecarboxamide] | 33.3% | 6.4% | > 10 µM | 0% | 2.8% | 73% |
| 0.409 µM | > 10 µM | > 10 µM |  | CC(C)Nc1cncc(-c2ccc3[nH]nc(-c4cc5c(-c6cccnc6)ccnc5[nH]4)c3c2)c1 [Compound 96, N-Isopropyl-5-(3-(4-(pyridin-3-yl)-1H-pyrrolo[2,3-b]pyridin-2-yl)-1H-indazol-5-yl)pyridin-3-amine] |  | 28.2% | > 10 µM | 10% | 38.9% | 45% |
| 3.97 µM | 0.561 µM | 1.68 µM | 30 nM | CCNCc1cncc(-c2ccc3[nH]nc(-c4cc5c(-c6cccc(F)c6)ccnc5[nH]4)c3c2)c1 [Compound 6, N-((5-(3-(4-(3-Fluorophenyl)-1H-pyrrolo[2,3-b]pyridin-2-yl)-1H-indazol-5-yl)pyridin-3-yl)methyl)ethanamine] |  |  | 1.2 µM |  |  | 59% |
| 3.34 µM | > 10 µM | 0.523 µM |  | FC1(F)CCN(Cc2cncc(-c3ccc4[nH]nc(-c5cc6c(-c7cccnc7)ccnc6[nH]5)c4c3)c2)C1 [Compound 110, 5-(5-((3,3-Difluoropyrrolidin-1-yl)methyl)pyridin-3-yl)-3-(4-(pyridin-3-yl)-1H-pyrrolo[2,3-b]pyridin-2-yl)-1H-indazole] |  | 51.8% | 0.095 µM |  |  | 20% |
| 0.586 µM | > 10 µM | > 10 µM |  | Cn1cc(-c2ccc3[nH]nc(-c4cc5c(-c6cccnc6)ccnc5[nH]4)c3c2)cn1 [Compound 556, 5-(1-Methyl-1H-pyrazol-4-yl)-3-(4-(pyridin-3-yl)-1H-pyrrolo[2,3-b]pyridin-2-yl)-1H-indazole] |  | 0% | 0.191 µM |  | 20% | 28% |
| > 10 µM | > 10 µM | > 10 µM |  | O=C(Nc1cncc(-c2ccc3[nH]nc(-c4cc5c(-c6cccnc6)ccnc5[nH]4)c3c2)c1)C1CCCCC1 [Compound 107, N-(5-(3-(4-(Pyridin-3-yl)-1H-pyrrolo[2,3-b]pyridin-2-yl)-1H-indazol-5-yl)pyridin-3-yl)cyclohexanecarboxamide] | 34.4% | 12% | > 10 µM | 41.7% | 10.6% | 39% |
| > 10 µM | 1.51 µM | > 10 µM |  | Fc1ccc(-c2ccnc3[nH]c(-c4n[nH]c5ccc(-c6cncc(CN7CCCC7)c6)cc45)cc23)cc1 [Compound 42, 3-(4-(4-Fluorophenyl)-1H-pyrrolo[2,3-b]pyridin-2-yl)-5-(5-(pyrrolidin-1-ylmethyl)pyridin-3-yl)-1H-indazole] | 40.2% |  | 2.93 µM |  | 14.8% | 22% |
